Measurements published in patent US4123544A, “Acetylsalicylic acid derivatives” (priority 1977, dated 1978).
In brackets after ≈: the same amount, converted by molar mass. Several values for one entry are separate records, joined by “and”; a condition that tells them apart may be missing. Identical values can stand only once. Like-named read-outs stand apart in the source and are kept apart here.

What was measured:
[1] = test system: hyperthermia caused by the injection of brewer's yeast; test: Antipyretic activity, hyperthermia caused by injection of brewer's yeast; type: in vivo, rats; conditions: intraperitoneal; for central temperature: 200 mg to 400 mg/kg, 37.28 ± 0.052 at Ho
Method: The antipyretic activity of 1-o-acetoxybenzoyl-4-hydroxyl-L-proline was assessed by the hyperthermia caused by the injection of brewer's yeast 17 hours before the start of the experiment (groups of 8 rats + 1 comparison group without yeast). The first temperature measurement was made at time Ho and the compounds to be tested were then administered intraperitoneally. The central temperature was then checked 1 hour 30 minutes, 3 hours and 4 hours 30 minutes after Ho.

Solubility in water = type: physicochemical
[2] = test system: carrageenin-induced plantar oedema; test: Anti-inflammatory activity, carrageenin-induced plantar oedema test on rats (intraperitoneal); type: in vivo; conditions: for percentage variation in volume, (V2 - V1)/V1 × 100, individual rats: 200 mg/kg (expressed as weight of compound); for percentage variation in volume, (V2 - V1)/V1 × 100, individual rats / percentage variation in volume, mean (X): 3 hours; for percentage variation in volume, mean (X): controls 88.22% ± 10.5; for Percentage variation: mean oedema versus controls
Method: The anti-inflammatory activity of 1-o-acetoxybenzoyl-4-hydroxy-L-proline was studied by means of the carrageenin-induced plantar oedema test on rats.
[…] of each rat in three groups of 8 to 9 rats was injected with carrageenin at time Ho. The first group was a control group and the second and third groups were test groups. The volume (V1) of the paw was then measured, and the compounds to be tested were administered intraperitoneally. The volume (V2) of the same paw was measured again three hours later.

mice = test: acute toxicity on intravenous administration to mice; type: in vivo
Excerpt: (§1) acute toxicity on intravenous administration to mice
(§2) The acute toxicity of 1-o-acetoxybenzoyl-4-hydroxy-L-proline was investigated by comparison with an injectable aspirin, namely lysine acetylsalicylate. The acetylsalicylic acid content of the two compounds was substantially the same (about 50%).
(§3) (Intravenous administration to mice)
(§4) *x/5: number of dead animals amongst 5 animals tested.

[3] = test system: phenylbenzoquinone cramping; test: Analgesic activity, phenylbenzoquinone cramping test; type: in vivo; conditions: oral; for Percentage change in number of cramps versus control / Number of cramps / Percentage inhibition relative to the control animals: 2 hours before test; for Number of cramps: control 449
Method: The analgesic activity of 1-o-acetoxybenzoyl-4-hydroxy-L-proline was studied by means of the phenylbenzoquinone cramping test, in comparison with the same injectable aspirin as that used in Example 2, the two compouns being administered orally 2 hours before the test on groups of 10 animals; a control group of animals to which neither compound was administered was also used.

[4] = acute toxicity, intraperitoneal administration to mice; conditions: mouse, in vivo, ip
Excerpt: The LD50 of the compound according to the invention, when administered intraperitoneally to mice, was about 10g/kg, whilst it was about 3g/kg for lysine acetylsalicylate.

rats = test: Analgesic activity, Randall-Selitto test on rats; type: in vivo
Excerpt: The analgesic activity of 1-o-acetoxybenzoyl-L-proline was studied on rats by means of the Randall-Selitto test (Arch. int. Pharmacodyn., 1957, 111, 409, 419).

[5] = test system: carrageenin-induced oedema; test: Anti-inflammatory activity, carrageenin-induced oedema test on rats (intramuscular); type: in vivo; conditions: for % inhibition / % Variation in the volume of the oedema: 3 hours; for % Variation in the volume of the oedema: comparisons 107.39 ± 5.19
Method: The anti-inflammatory activity of 1-o-acetoxybenzoyl-L-proline was studied by means of the carrageenin-induced oedema test on rats. In this test, the antiinflammatory activity of the compound according to the invention was compared with that of an injectable aspirin, namely lysine acetylsalicylate.
the compounds were injected intramuscularly, 30 minutes before the carrageenin. The volume of the oedema was measured three hours afterwards.

[6] = acute toxicity on intravenous administration to mice; type: in vivo; conditions: mouse, in vivo; intravenous, mice
Excerpt: as §1, §2, §3, §4

[7] = acute toxicity, oral administration to mice; conditions: mouse, in vivo, orally
gastric ulcers = conditions: administered orally; known disadvantage; cited from earlier work
[8] = 50 mg/kg (expressed as weight of compound)
[9] = 100 mg/kg (expressed as weight of compound)
[10] = 50 mg/kg (expressed as acetylsalicylic acid)
[11] = 100 mg/kg (expressed as acetylsalicylic acid)

SMILES: CC(=O)Oc1ccccc1C(=O)N1CC(O)C[C@H]1C(=O)O (stereo partly drawn) [1-o-acetoxybenzoyl-4-hydroxy-L-proline]
- central temperature ([1]; 1 hr 30 mins after Ho): 36.12 °C
- central temperature ([1]; 3 hrs after Ho): 36.40 °C
- central temperature ([1]; 4 hrs 30 mins after Ho): 36.82 °C
- antipyretic activity (in words) ([1]; versus injectable aspirin): greater than that of the injectable aspirin
- solubility (Solubility in water; pH = 3): ~50 mg/mL (≈ 170 mM)
- percentage variation in volume, (V2 - V1)/V1 × 100, individual rats ([2]; listed as Compound according to the invention): 63.6% and 64% and 82.5% and 82.3% and 63.5% and 61.6% and 67.4% and 53.7% and 60.9%
- percentage variation in volume, mean (X) ([2]; 200 mg/kg): 66.61 ± 9.7%
- anti-inflammatory activity (in words) ([2]; 200 mg/kg, versus injectable aspirin): very good anti-inflammatory activity, markedly superior to that of the injectable aspirin
- Percentage variation ([2]; 200 mg/kg): -24%
- toxicity (in words) (mice; intravenous, mice): substantially non-toxic
- number of dead animals amongst 5 animals tested (mice; intravenous, mice, 700 mg/kg): 0/5
- number of dead animals amongst 5 animals tested (mice; intravenous, mice, 1,500 mg/kg): 0/5
- number of dead animals amongst 5 animals tested (mice; intravenous, mice, 3,000 mg/kg): 0/5
- number of dead animals amongst 5 animals tested (mice; intravenous, mice, 4,000 mg/kg): 0/5
- immediate symptoms (mice; mouse, in vivo, iv): practically no symptoms
- Percentage change in number of cramps versus control [3, 8]: -12%
- Number of cramps [3, 8]: 396
- Percentage change in number of cramps versus control [3, 9]: -57%
- Number of cramps [3, 9]: 194
- analgesic activity relative to the injectable aspirin ([3]; phenylbenzoquinone test): practically twice that of the injectable aspirin
- LD50 [4]: ~10000 mg/kg

SMILES: CC(=O)Oc1ccccc1C(=O)N1CCC[C@H]1C(=O)O [1-o-acetoxybenzoyl-L-proline]
- solubility (Solubility in water): 50 mg/mL (≈ 180 mM)
- Inhibition % (rats; 50 mg/kg, 1 hour): 59.49%
- Inhibition % (rats; 50 mg/kg, 2 hours): 67.57%
- Inhibition % (rats; 50 mg/kg, 4 hours): 44.00%
- Inhibition % (rats; 100 mg/kg, 1 hour): 74.68%
- Inhibition % (rats; 100 mg/kg, 2 hours): 89.19%
- Inhibition % (rats; 100 mg/kg, 4 hours): 53.33%
- Inhibition % (rats; 200 mg/kg, 1 hour): 98.73%
- Inhibition % (rats; 200 mg/kg, 2 hours): 130.98%
- Inhibition % (rats; 200 mg/kg, 4 hours): 104.01%
- analgesic activity (in words) (rats; dose of 100 mg): comparable to that of lysine acetylsalicylate used at medium doses
- % inhibition ([5]; 50 mg/kg): 2.48%
- % Variation in the volume of the oedema ([5]; 50 mg/kg): 104.73 ± 7.23%
- % inhibition ([5]; 100 mg/kg): 23.97%
- % Variation in the volume of the oedema ([5]; 100 mg/kg): 81.65 ± 5.97%
- % inhibition ([5]; 200 mg/kg): 29.50%
- % Variation in the volume of the oedema ([5]; 200 mg/kg): 75.71 ± 4.8%
- antiinflammatory activity (in words) ([5]; dose of 100 mg): comparable to that of lysine acetylsalicylate used at medium doses

SMILES: CC(=O)Oc1ccccc1C(=O)O [Lysine acetylsalicylate, lysine acetylsalicylate, reference compound]
- central temperature ([1]; 1 hr 30 mins after Ho): 36.64 °C
- central temperature ([1]; 3 hrs after Ho): 36.92 °C
- central temperature ([1]; 4 hrs 30 mins after Ho): 36.90 °C
- percentage variation in volume, (V2 - V1)/V1 × 100, individual rats ([2]; listed as Injectable aspirin): 74.4% and 83.3% and 70.7% and 68.3% and 87.5% and 61% and 85% and 64%
- percentage variation in volume, mean (X) ([2]; 200 mg/kg): 74.29% ± 9.36
- Percentage variation ([2]; 200 mg/kg): -16%
- LD50 [6]: ~2000 mg/kg
- immediate symptoms (mice; intravenous, mice): pronounced, with depression, ataxia and convulsions occurring
- number of dead animals amongst 5 animals tested (mice; intravenous, mice, 1,500 mg/kg): 0/5
- number of dead animals amongst 5 animals tested (mice; intravenous, mice, 2,000 mg/kg): 5/5
- number of dead animals amongst 5 animals tested (mice; intravenous, mice, 3,000 mg/kg): 3/5
- number of dead animals amongst 5 animals tested (mice; intravenous, mice, 3,500 mg/kg): 5/5
- Percentage inhibition relative to the control animals [3, 10]: -14%
- Number of cramps [3, 10]: 386
- Percentage inhibition relative to the control animals [3, 11]: -56%
- Number of cramps [3, 11]: 196
- Inhibition % (rats; 50 mg/kg, 1 hour): 72.98%
- Inhibition % (rats; 50 mg/kg, 2 hours): 60.26%
- Inhibition % (rats; 50 mg/kg, 4 hours): 65.79%
- Inhibition % (rats; 100 mg/kg, 1 hour): 85.14%
- Inhibition % (rats; 100 mg/kg, 2 hours): 97.44%
- Inhibition % (rats; 100 mg/kg, 4 hours): 73.68%
- Inhibition % (rats; 200 mg/kg, 1 hour): 105.40%
- Inhibition % (rats; 200 mg/kg, 2 hours): 124.36%
- Inhibition % (rats; 200 mg/kg, 4 hours): 111.84%
- LD50 ([4]; intraperitoneally, mice, read-out: LD50): ~3000 mg/kg
- LD50 [7]: 3000 mg/kg
- % inhibition ([5]; 50 mg/kg): 16.74%
- % Variation in the volume of the oedema ([5]; 50 mg/kg): 89.41 ± 9.39%
- % inhibition ([5]; 100 mg/kg): 27.56%
- % Variation in the volume of the oedema ([5]; 100 mg/kg): 77.79 ± 5.39%
- % inhibition ([5]; 200 mg/kg): 41.76%
- % Variation in the volume of the oedema ([5]; 200 mg/kg): 62.54 ± 6.83%

SMILES: CC(=O)Oc1ccccc1C(=O)O [acetylsalicylic acid]
- ulcerogenic activity (gastric ulcers): ulcerogenic
